Activity calls are given as the source filed them.
How the values were obtained:
[1] = Late stage assay provider results from the probe development effort to identify inhibitors of the Plasmodium falciparum M17 Leucine Aminopeptidase (M17LAP): radiolabel-based cell-based dose response assay to identify compounds that inhibit P. falciparum growth in RBCs Set 2.; type: functional
[2] = biological target: T1, Low molecular weight phosphotyrosine protein phosphatase (Homo sapiens, UniProt P24666); type: functional; settings: read-out: IC50_Mean;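 further: Dose-response confirmation assay measuring inhibition of LMPTP enzyme activity by fluorescence intensity read-out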
T1 sequence (P24666 whole entry): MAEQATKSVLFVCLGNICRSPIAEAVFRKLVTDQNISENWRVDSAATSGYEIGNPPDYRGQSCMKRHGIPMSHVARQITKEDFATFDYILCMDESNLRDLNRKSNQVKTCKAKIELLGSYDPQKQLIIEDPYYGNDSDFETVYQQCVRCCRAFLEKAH

Escherichia coli = assay: microbe, parasite or virus in culture
[3] = biological target: DNA (cytosine-5)-methyltransferase 1 (Homo sapiens, UniProt P26358); assay: DNMT1 methyltransferase inhibitors, confirmation, biochemical, fluorescent molecular beacon (AID 602386); type: functional
[4] = biological target: T2, Apoptotic protease-activating factor 1 (Homo sapiens, UniProt O14727); assay: SAR analysis of small molecule Activators of Apaf-1 in a Fluorescent assay.; type: functional; settings: read-out: EC50_Mean;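 further: caspase-3 cleavage of fluorogenic Rh110 DEVD substrate downstream of apoptosome activation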
T2 sequence (O14727 whole entry): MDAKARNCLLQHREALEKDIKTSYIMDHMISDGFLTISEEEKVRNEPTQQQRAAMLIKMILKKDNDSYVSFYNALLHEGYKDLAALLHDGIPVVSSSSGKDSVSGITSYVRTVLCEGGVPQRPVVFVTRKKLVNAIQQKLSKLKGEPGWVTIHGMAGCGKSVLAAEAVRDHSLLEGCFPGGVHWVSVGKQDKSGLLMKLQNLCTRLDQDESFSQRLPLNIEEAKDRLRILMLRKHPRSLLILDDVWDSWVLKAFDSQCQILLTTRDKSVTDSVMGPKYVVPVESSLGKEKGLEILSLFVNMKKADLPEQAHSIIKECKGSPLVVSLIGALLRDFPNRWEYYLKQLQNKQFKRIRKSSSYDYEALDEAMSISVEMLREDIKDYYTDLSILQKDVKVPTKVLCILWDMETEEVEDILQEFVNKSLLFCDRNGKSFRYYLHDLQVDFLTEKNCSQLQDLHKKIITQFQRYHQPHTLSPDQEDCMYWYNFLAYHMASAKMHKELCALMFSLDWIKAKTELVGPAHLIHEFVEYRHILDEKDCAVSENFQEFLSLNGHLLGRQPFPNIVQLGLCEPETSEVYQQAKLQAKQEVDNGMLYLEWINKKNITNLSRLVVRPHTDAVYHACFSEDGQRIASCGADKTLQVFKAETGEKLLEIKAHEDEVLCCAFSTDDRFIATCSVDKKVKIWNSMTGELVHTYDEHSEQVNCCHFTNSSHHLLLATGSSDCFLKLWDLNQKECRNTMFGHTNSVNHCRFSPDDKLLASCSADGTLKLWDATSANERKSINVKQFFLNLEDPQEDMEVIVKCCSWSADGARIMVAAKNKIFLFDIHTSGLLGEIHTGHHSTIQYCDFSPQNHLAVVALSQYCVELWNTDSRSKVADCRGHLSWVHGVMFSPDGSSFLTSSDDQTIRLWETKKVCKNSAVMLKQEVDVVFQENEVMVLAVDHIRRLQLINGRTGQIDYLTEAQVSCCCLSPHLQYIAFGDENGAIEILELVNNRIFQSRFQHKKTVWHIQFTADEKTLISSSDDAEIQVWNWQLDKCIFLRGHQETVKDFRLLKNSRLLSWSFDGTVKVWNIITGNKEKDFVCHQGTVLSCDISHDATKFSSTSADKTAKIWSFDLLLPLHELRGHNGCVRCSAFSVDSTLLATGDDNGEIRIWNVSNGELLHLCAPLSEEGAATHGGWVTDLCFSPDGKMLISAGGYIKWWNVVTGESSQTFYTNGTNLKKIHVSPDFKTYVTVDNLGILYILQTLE

Melanocortin receptor 4 = Melanocortin receptor 4 (Homo sapiens, UniProt P32245); type: functional, cell-based;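 further: Cell-based assay with luminescence read-out, confirmatory dose-response testing for agonist activity of biased ligands at MC4R; human U2OS cells with tagged receptor and beta-arrestin; potency of agonists that increase receptor coupling to beta-arrestin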
[5] = biological target: T3, Ubiquitin-conjugating enzyme E2 N (Homo sapiens, UniProt P61088); type: functional;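 further: Dose-response confirmation in a TR-FRET assay detecting UBC13-driven polyubiquitin chain formation, inhibition measured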
T3 sequence (P61088 whole entry): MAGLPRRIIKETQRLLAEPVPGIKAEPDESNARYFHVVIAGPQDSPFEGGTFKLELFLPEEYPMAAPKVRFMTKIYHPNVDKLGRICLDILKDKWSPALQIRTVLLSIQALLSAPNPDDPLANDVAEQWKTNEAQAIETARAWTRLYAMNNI

[6] = biological target: T4, Sentrin-specific protease 8 (Homo sapiens, UniProt Q96LD8); type: functional
T4 sequence (Q96LD8 whole entry): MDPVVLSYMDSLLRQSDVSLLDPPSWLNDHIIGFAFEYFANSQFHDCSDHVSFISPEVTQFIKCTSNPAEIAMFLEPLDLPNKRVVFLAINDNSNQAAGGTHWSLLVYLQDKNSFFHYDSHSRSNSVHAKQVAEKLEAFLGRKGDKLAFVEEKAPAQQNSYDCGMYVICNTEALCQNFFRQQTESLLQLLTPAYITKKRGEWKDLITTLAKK

[7] = biological target: T4, Sentrin-specific protease 8; type: functional; remark: listed apart in the source
[8] = biological target: T5, Methionyl-tRNA synthetase, putative (Trypanosoma brucei brucei, UniProt Q38C91); type: functional, Trypanosoma brucei brucei strain 927/4 GUTat10.1
T5 sequence (Q38C91 whole entry): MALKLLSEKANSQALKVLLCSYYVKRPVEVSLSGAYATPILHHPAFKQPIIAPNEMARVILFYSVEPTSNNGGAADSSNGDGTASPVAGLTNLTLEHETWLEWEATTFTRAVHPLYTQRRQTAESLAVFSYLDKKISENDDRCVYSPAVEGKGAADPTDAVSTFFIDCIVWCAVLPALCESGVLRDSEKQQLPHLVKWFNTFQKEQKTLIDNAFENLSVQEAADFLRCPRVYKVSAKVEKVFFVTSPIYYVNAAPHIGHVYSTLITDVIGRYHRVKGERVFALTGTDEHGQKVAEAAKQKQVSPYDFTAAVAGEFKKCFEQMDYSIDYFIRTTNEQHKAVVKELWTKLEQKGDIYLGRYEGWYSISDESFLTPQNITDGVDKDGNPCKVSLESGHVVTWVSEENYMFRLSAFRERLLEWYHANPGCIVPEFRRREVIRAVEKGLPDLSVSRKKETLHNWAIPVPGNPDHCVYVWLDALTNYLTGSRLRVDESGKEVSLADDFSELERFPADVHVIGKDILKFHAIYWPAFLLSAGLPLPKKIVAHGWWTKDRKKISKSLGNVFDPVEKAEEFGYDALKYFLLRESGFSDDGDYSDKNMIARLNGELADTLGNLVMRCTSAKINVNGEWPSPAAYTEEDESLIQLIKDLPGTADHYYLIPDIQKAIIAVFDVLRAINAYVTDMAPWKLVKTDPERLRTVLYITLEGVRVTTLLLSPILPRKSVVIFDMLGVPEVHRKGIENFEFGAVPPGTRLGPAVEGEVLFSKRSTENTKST

[9] = Counterscreen for inhibitors of Trypanosoma brucei methionyl tRNA synthetase (MetRS): Luminescence-based cell-based high throughput dose response assay to identify compounds that are cytotoxic to Jurkat human T lymphocyte cells.; type: functional
[10] = biological target: T5, Methionyl-tRNA synthetase, putative; type: functional, Trypanosoma brucei brucei strain 927/4 GUTat10.1; remark: listed apart in the source
[11] = biological target: T6, Heat shock factor protein 1 (Mus musculus, UniProt P38532); assay: inhibition of MG132-induced HSE-luciferase signal, confirmation, cell-based, NIH3T3, luminescence, dose retest (AID 2382); type: functional;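 further: NIH3T3 fibroblasts with HSF1-driven luciferase reporter stressed by proteasome inhibitor MG132; luminescence from HSF1-driven luciferase expression after 8 hours of MG132 stress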
T6 sequence (P38532 whole entry): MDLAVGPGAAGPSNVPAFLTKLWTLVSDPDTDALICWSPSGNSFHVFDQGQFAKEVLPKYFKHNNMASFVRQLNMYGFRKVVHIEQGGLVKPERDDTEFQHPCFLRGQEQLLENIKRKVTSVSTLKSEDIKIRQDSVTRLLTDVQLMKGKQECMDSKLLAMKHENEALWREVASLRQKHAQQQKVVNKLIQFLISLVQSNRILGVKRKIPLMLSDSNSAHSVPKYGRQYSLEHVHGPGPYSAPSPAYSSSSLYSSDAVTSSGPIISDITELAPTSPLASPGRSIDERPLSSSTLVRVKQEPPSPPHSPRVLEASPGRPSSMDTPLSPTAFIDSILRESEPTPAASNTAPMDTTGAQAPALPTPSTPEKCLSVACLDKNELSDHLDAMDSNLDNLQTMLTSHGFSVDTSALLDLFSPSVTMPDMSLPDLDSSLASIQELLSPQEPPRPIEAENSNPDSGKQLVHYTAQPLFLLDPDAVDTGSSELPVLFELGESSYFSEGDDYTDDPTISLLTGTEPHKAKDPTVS

Interleukin-8 = biological target: T7, Interleukin-8 (Homo sapiens, UniProt P10145); assay: Dose Response confirmation of uHTS small molecule hits for cystic fibrosis induced NFkb Inhibitors in a PAF-induced IL8 counterscreen.; type: functional; settings: read-out: IC50_Mean
T7 sequence (P10145 whole entry): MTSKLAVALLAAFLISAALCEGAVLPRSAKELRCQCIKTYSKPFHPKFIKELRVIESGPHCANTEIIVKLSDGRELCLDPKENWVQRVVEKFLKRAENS

H9c2 = assay: cells; type: functional, cell-based; settings: Rattus norvegicus, H9c2, Myocardium;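 further: confirmatory concentration-response retest of ultra-high-throughput screening hits for modulation of myocardial damage; cell death induced by hydrogen peroxide oxidative stress; compound pretreatment for 60 min then peroxide exposure for 2 h; potency is for protecting the cells against peroxide damage rather than for killing them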

Melanocortin receptor 4, sequence (P32245 whole entry): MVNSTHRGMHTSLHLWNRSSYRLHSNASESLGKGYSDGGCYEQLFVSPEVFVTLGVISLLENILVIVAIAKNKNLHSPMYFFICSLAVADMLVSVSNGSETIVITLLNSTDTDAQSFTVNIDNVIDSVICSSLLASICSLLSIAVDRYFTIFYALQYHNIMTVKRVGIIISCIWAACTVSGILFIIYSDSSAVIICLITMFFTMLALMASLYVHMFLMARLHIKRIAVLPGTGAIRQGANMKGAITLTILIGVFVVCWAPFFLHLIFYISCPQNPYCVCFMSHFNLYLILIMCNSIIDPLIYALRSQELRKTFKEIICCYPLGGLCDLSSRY
DNA (cytosine-5)-methyltransferase 1, sequence (P26358 whole entry): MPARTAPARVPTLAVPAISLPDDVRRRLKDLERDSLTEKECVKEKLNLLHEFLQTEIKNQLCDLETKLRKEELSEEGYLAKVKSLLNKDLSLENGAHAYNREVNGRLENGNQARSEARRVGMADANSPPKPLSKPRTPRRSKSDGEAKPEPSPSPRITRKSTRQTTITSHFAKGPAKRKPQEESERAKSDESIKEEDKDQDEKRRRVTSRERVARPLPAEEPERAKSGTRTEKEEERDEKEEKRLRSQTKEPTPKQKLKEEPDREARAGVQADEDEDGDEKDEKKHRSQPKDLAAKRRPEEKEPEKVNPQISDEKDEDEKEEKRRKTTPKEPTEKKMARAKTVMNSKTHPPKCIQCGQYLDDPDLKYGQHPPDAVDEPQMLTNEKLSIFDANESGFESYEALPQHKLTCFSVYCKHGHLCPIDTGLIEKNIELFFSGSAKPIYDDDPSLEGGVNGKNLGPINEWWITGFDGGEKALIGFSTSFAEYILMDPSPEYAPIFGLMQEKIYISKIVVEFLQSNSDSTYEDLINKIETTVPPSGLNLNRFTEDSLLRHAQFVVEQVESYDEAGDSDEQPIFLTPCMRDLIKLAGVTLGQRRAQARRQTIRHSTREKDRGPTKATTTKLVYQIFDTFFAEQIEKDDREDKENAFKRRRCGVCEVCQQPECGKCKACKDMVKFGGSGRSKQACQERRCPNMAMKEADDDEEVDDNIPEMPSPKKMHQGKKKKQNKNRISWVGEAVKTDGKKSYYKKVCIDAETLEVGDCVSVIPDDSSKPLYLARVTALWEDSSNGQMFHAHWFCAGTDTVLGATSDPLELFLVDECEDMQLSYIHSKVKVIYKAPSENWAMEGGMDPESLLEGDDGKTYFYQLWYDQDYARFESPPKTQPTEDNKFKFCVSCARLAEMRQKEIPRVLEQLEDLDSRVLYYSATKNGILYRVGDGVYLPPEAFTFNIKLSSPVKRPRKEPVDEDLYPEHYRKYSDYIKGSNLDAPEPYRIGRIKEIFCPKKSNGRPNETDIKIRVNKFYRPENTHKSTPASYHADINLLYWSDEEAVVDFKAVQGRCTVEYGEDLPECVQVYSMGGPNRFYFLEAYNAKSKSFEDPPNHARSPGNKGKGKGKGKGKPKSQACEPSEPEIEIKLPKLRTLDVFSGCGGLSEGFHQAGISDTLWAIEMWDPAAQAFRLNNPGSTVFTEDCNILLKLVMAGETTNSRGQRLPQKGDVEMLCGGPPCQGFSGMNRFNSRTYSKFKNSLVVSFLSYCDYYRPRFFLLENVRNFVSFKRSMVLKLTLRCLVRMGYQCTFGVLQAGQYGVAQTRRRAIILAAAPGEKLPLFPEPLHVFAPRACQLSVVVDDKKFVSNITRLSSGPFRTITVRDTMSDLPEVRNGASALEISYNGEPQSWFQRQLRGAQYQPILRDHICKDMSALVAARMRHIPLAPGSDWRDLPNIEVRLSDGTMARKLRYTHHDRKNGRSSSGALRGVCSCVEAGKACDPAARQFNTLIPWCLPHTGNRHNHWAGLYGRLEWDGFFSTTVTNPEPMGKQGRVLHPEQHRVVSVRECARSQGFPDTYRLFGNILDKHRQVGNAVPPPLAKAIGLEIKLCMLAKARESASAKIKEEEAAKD

Structure (SMILES): O=C(Cc1ccc2c(c1)CCCC2)NO
- IC50 [1]: 5.5 µM (active)

Structure (SMILES): CCn1cc(C(=O)O)c(=O)c2cc(F)c(N3CCN(C(=S)NC(=O)c4ccc(F)c(F)c4)CC3)cc21
- IC50 [2]: 16.6 µM (active)
- AC50 (Escherichia coli): 3.38 µM (active)

Structure (SMILES): CC(=O)c1cccc(OCC(=O)N(C)CC(=O)NCc2ccco2)c1
- IC50 [3]: 6.09 µM (active)

Structure (SMILES): COC(=O)c1coc(-c2ccc(-c3ccccc3)cc2)n1
- EC50 [4]: > 100 µM (inactive)

Structure (SMILES): CCOc1ccc(Cn2c3ccc(OC)cc3c3nc4ccccc4nc32)cc1
- EC50 (Melanocortin receptor 4): > 89.2 µM (inactive)

Structure (SMILES): COc1cc2c(c(OC)c1OC)-c1ccc(O)c(=O)cc1[C@@H](N)CC2
- IC50 [5]: > 20 µM (inactive)
- IC50 [6]: > 100 µM (inactive)
- IC50 [7]: 25.7 µM (active)

Structure (SMILES): CC(C)COc1ccc(CC(=O)NO)cc1
- IC50 [1]: 7.4 µM (active)

Structure (SMILES): Cc1cc(C)c2sc(N(CCCN(C)C)C(=O)c3ccc(Br)s3)nc2c1
- EC50 (Melanocortin receptor 4): > 89.2 µM (inactive)

Structure (SMILES): Cc1cc(C)n(CC(C)C(=O)Nc2ccc(Cl)c(Cl)c2)n1 (stereo not drawn)
- EC50 [4]: > 100 µM (inactive)

Structure (SMILES): O=C(CC(=O)Nc1cccc(Cl)c1)N/N=C\c1ccccc1
- IC50 [8]: 6.25 µM (active)
- IC50 [9]: 83.3 µM (inactive)
- IC50 [10]: 3.94 µM (active)

Structure (SMILES): CCOc1ccc(-n2c(C)c(C(C)=O)c3cc(OC(C)=O)ccc32)cc1
- EC50 [11]: 24.6 µM (active)
- IC50 (Interleukin-8): > 79 µM (inactive)
- IC50 (H9c2): 9.08 µM (active)
